Values quoted from earlier work, collected in PMC6896740, “Safety, tolerability, pharmacokinetics, and pharmacodynamics of PF-06650833, a selective interleukin-1 receptor-associated kinase 4 (IRAK4) inhibitor, in single and multiple ascending dose randomized phase 1 studies in healthy subjects” (Arthritis Research & Therapy, 2019).

Design: method as in PMID 28498658
Conditions: cited from earlier work

Structure (SMILES): CC[C@@H]1[C@H](F)C(=O)N[C@@H]1COc1nccc2cc(C(N)=O)c(OC)cc12 [PF-06650833, 1-{[(2S,3S,4S)-3-Ethyl-4-fluoro-5-oxopyrrolidin-2-yl]methoxy}-7-methoxyisoquinoline-6-carboxamide]
- Permeability: high-permeability compound
